Source: patent publication US10655153B2, “Chemoenzymatic synthesis of peptide beta-lactones and beta-hydroxy acids” (Washington University, priority 2017, dated 2020)
“Also recorded” adds a separate entry of the source.

What was measured:
[1] = system: 6× passaged E. coli ATCC 25922; assay: Growth curves of 6× passaged E. coli in the presence of RC-Obi; type: cell-based; details: 6 overnight cycles in LB broth with 0.25 mM RC-Obi, then varying concentrations in LB broth
Experimental: (§1) E. coli ATCC 25922 was passaged in LB broth through 6 overnight cycles in the presence of 0.25 mM RC-Obi β-lactone with fresh doses of antibiotic added every 18 hours for 6 days straight.

E. coli ATCC 25922 [2] = assay: Antibiotic susceptibility testing, growth curves by OD600; type: cell-based; details: for effect on E. coli growth (OD600): 150 μM, M9 minimal media, compared to buffer control
Experimental: (§2) Bacterial strains (E. coli 29522 and E. coli X580) were grown from frozen glycerol stocks in LB media overnight at 37° C. with shaking. These starter cultures were used to inoculate fresh LB broth or M9 minimal media broth at an OD600 of 0.3. Each well of a 96-well plate was filled with 100 μL of sterile media (LB or M9). A sterile solution of RC-Obi or RO-Obi in LB or M9 media was added to the first well of each row and was serially diluted two-fold down the entire row creating a compound concentration gradient of 0.3-0.0025 mM.
(§3) Each well of the plate was then filled with 100 μL of the OD600 0.3 bacterial cell suspensions to give a final volume of 200 μL per well. The plates were incubated at 37° C. and the OD600 of each well was measured every 30 minutes over 24 hours. The plate was shaken briefly prior to each measurement to ensure an even cell suspension. All growth curves were generated in triplicate.

Streptococcus pneumonia = details: reported; cited from earlier work
E. coli ATCC 25922 [3] = assay: Fluorescence microscopy of fixed cells stained with DAPI and FM 4-64fx; type: cell-based; details: RC-Obi 0.1 mM, RO-Obi 0.5 mM, 2 hours at 37° C.
Experimental: The E. coli cells were also subjected to fluorescence microscopy after treatment with RC-Obi or RO-Obi. E. coli ATCC 29522 cells were grown in LB media for 8 hours at 37° C. then plated on agar media and incubated overnight at 37° C. A single colony was transferred into test tube with fresh LB media and allowed to grow to 0.3 OD600 at 37° C. Cells were diluted by a factor of 10, allowed to grow to OD600 0.3 again. Aliquots of the cell suspension (2 mL each) were treated with RC-Obi (0.1 mM), RO-Obi (0.5 mM), ampicillin (50 μg/mL), or buffer control and incubated for 2 hours at 37° C. Culture aliquots of 250 μL were then used for staining and fluorescence microscopy. Cell membranes and DNA were labeled with the fixable dyes FM 4-64fx and DAPI, respectively, according to the manufacturer's instructions. Cells were fixed with 2.6% paraformaldehyde+0.008% glutaraldehyde as previously described. Fixed cells were imaged on 1% agarose pads with an Olympus BX51 microscope equipped with a CCD OrcaERG camera (Hamamatsu Photonics, Bridgewater, N.J.), an Olympus Plan N 100X/1.25 Oil Ph3 objective, and an X-Cite 120 LED light source (Lumen Dynamics). Nikon elements were used for image capture using the DAPI and rhodamine filter sets from Chroma. Images were processed using NIS—Elements Basic Research Microscope Imaging Software (Nikon Corp.).

[4] = reported; cited from earlier work
[5] = previous studies; cited from earlier work
E. coli X580 = assay: Growth curves of β-lactam hypersensitive E. coli X580; type: cell-based; details: varying concentrations of RC-Obi
Experimental: as §2, §3, §1

| SMILES | susceptibility after passaging [1] | effect on E. coli growth (OD600) (E. coli ATCC 25922 [2]) | time until growth recovered to normal levels (E. coli ATCC 25922 [2]; after treatment with RC-Obi) [h] | effect on E. coli growth (OD600) at various concentrations (E. coli ATCC 25922 [2]; various concentrations of RC-Obi, or buffer control) | efficacy in murine septicemia model (Streptococcus pneumonia) | cell clumping phenotype (E. coli ATCC 25922 [3]) | antibacterial activity [4] | hydrolysis in aqueous solutions [5] | sensitivity compared to E. coli ATCC 29522 (E. coli X580) |
| --- | --- | --- | --- | --- | --- | --- | --- | --- | --- |
| O=C(N[C@@H]1C(=O)O[C@@H]1Cc1ccc([N+](=O)[O-])cc1)c1cccc(O)c1O [RC-Obi, obafluorin] | still susceptible to the antibiotic | inhibited the growth of E. coli; also recorded: halted E. coli growth | ~10 | inhibited the growth of E. coli in a dose-dependent manner | demonstrated efficacy | induced a cell clumping phenotype; also recorded: severe cell clumping | broad-spectrum antibacterial activity | hydrolyzes rapidly | enhanced sensitivity and slower growth recovery |
| O=C(NC(C(=O)O)C(O)Cc1ccc([N+](=O)[O-])cc1)c1cccc(O)c1O (centres unmarked) [RO-Obi] | – | minimal effect on E. coli growth | – | – | – | moderate cell clumping | – | – | – |
